Source: ChEMBL document CHEMBL3352551, “Synthesis and biological evaluation of novel allosteric enhancers of the A1 adenosine receptor based on 2-amino-3-(4'-chlorobenzoyl)-4-substituted-5-arylethynyl thiophene” (J Med Chem, 2014)
Active and inactive are the calls of the source. No cut-off for these calls is given here.

Tests used:
[1] = target: T1, Adenosine receptor A1 (Homo sapiens) (UniProt P30542); experiment: Allosteric enhancer activity at human adenosine A1 receptor expressed in CHO cells assessed as inhibition of forskolin-induced cAMP production at 100 nM in presence of 1 pM CCPA; type: functional, cell-based
T1 sequence (whole entry): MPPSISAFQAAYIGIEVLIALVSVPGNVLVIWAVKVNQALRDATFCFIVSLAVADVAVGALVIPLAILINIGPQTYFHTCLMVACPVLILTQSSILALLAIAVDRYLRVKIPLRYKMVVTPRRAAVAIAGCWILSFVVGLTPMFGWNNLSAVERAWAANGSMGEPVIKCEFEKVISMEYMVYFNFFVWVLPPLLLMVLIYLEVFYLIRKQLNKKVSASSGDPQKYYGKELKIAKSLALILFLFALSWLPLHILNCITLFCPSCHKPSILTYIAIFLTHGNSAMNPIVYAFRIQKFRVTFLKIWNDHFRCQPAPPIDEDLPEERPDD

[2] = target: T2, Adenosine receptor A3 (Homo sapiens) (UniProt P0DMS8); experiment: Displacement of [3H]MRE-3008-F20 from human adenosine 3 receptor expressed in CHO cell membranes at 10 uM
T2 sequence (whole entry): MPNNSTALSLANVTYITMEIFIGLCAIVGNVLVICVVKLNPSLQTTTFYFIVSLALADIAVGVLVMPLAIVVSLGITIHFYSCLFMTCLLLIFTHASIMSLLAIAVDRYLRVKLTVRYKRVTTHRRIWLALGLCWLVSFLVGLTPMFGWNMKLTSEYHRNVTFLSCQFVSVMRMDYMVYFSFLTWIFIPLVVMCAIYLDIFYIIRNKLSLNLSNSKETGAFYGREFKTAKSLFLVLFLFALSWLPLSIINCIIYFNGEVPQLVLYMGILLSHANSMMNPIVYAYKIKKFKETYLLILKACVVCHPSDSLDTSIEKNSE

[3] = target: T1, Adenosine receptor A1 (Homo sapiens); experiment: Allosteric enhancer activity at human adenosine A1 receptor expressed in CHO cell membranes assessed as shift in CCPA binding Ki level at 10 uM by [3H]DPCPX competition binding assay
[4] = target: T1, Adenosine receptor A1 (Homo sapiens); experiment: Allosteric enhancer activity at human adenosine A1 receptor expressed in CHO cell membranes assessed as slowing of [3H]NECA dissociation rate level at 1 uM; type: cell-based
[5] = target: T1, Adenosine receptor A1 (Homo sapiens); experiment: Allosteric enhancer activity at human adenosine A1 receptor expressed in CHO cell membranes assessed as shift in [3H}NECA binding affinity level at 1 uM
[6] = target: T1, Adenosine receptor A1 (Homo sapiens); experiment: Allosteric enhancer activity at human adenosine A1 receptor expressed in CHO cell membranes assessed as shift in [3H]CCPA Kd level at 10 uM by saturation binding assay
[7] = target: Adenosine receptor A2a (Homo sapiens) (UniProt P29274); experiment: Displacement of [3H]ZM241385 from human adenosine A2A receptor expressed in CHO cell membranes at 10 uM
[8] = target: T1, Adenosine receptor A1 (Homo sapiens); experiment: Allosteric enhancer activity at human adenosine A1 receptor expressed in CHO cell membranes assessed as [3H]NECA association rate at 1 uM (reference value: 0.0183 +/- 0.0008 /nM/min); type: cell-based
[9] = target: T1, Adenosine receptor A1 (Homo sapiens); experiment: Allosteric enhancer activity at human adenosine A1 receptor expressed in CHO cells assessed as inhibition of forskolin-induced cAMP production at 10 uM; type: functional, cell-based
[10] = target: T1, Adenosine receptor A1 (Homo sapiens); experiment: Allosteric enhancer activity at human adenosine A1 receptor expressed in CHO cell membranes assessed as shift in [3H]CCPA Bmax level at 10 uM by saturation binding assay
[11] = target: T1, Adenosine receptor A1 (Homo sapiens); experiment: Allosteric enhancer activity at human adenosine A1 receptor expressed in CHO cell membranes assessed as [3H]NECA dissociation rate at 1 uM (reference value: 0.0159 +/- 0.0004 /min); type: cell-based
[12] = target: T1, Adenosine receptor A1 (Homo sapiens); experiment: Displacement of [3H]DPCPX from human adenosine A1 receptor expressed in CHO cell membranes at 10 uM
Adenosine receptor A1 = target: T3, Adenosine receptor A1 (Rattus norvegicus, UniProt P25099); experiment: Displacement of [3H]DPCPX from adenosine A1 receptor in rat membranes; type: cell membranes
T3 sequence (P25099 whole entry): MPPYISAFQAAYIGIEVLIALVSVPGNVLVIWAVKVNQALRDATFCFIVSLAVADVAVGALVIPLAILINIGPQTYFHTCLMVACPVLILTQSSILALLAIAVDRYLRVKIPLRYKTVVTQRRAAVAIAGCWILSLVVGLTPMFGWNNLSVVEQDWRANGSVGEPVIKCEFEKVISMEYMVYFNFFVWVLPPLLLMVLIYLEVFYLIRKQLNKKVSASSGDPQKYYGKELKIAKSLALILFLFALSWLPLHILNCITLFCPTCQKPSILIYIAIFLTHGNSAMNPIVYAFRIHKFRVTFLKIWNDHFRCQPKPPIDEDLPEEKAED

Sequence of Adenosine receptor A2a (Homo sapiens) (P29274 whole entry): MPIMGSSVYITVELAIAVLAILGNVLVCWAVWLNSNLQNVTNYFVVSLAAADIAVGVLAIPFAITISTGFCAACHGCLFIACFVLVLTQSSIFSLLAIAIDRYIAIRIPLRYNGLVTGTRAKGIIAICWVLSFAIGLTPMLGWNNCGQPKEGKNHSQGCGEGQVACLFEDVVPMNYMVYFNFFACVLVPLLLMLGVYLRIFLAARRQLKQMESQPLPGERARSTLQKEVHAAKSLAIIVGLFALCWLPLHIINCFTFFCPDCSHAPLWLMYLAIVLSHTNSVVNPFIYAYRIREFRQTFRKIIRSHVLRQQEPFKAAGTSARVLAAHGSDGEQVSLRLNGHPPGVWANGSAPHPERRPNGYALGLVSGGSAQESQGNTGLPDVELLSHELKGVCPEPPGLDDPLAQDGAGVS

## CC(C)(C)Cc1c(C#Cc2ccccc2)sc(N)c1C(=O)c1ccc(Cl)cc1
[1]
  inhibition: 77%
[2]
  inhibition: < 15%
[3]
  fold change (FC): 9.9
[4]
  fold change (FC): 2.1
[5]
  fold change (FC): 1.9
[6]
  Activity: inactive
[7]
  inhibition: < 15%
[8]
  K: 273000 M⁻¹ s⁻¹
[9]
  inhibition: 75%
[10]
  fold change (FC): 9.5
[11]
  K: 0.0076 min⁻¹
[12]
  inhibition: < 15%

## Cc1sc(N)c(C(=O)c2cccc(C(F)(F)F)c2)c1C
[3]
  fold change (FC): 1.3
[5]
  fold change (FC): 1.2
[6]
  Activity: inactive
Adenosine receptor A1
  Ki: 11 µM
[7]
  inhibition: inactive
[8]
  K: 318000 M⁻¹ s⁻¹
[10]
  fold change (FC): 1.3
[11]
  K: 0.0143 min⁻¹
[12]
  inhibition: inactive
